Results as given in US10092620B2, “Uses of cyclic peptides for treating and preventing atherosclerosis” (THE SCRIPPS RESEARCH INSTITUTE, priority 2013, dated 2018).
Entries after “also recorded” stand apart in the source; their conditions may differ. Non-standard residues stand in square brackets, D forms with d. dNMeW = CN[C@H](Cc1c[nH]c2ccccc12)C(=O)O; dNMeE = CN[C@H](CCC(=O)O)C(=O)O

Columns and labels:
[1] = test system: plasma HDL; experiment: in vivo plasma HDL remodeling after intraperitoneal injection (Western blotting for mouse apoA-I); settings: male mice (n=3), i.p. 18-24 mg/kg; FIG. 9
Method: To ascertain if the cyclic D,L-α-peptides function in vivo as modulators of HDL, we administered 1 to mice (BALB/c, n=3) via intraperitoneal injection (i.p.) at a dose of 20 mg/kg. After various times, blood was drawn and the plasma was analyzed by Western blotting to determine the levels of the HDL subpopulations.
In vivo plasma remodeling: Cyclic peptide c[wLwReQeR], 1, was dissolved in 10% sucrose, and sterile filtered through a 0.22-μm syringe filter before injection. Mice were fasted beginning 12 h before dosing, and continued the fast until after the 8-h time point blood draw was completed. Groups of three mice received a 20 mg/kg dose of the cyclic peptide via intraperitoneal injection (0.3 mL). Blood was drawn (30-60 μL) from the retro-orbital sinus into a heparinized capillary tube before dosing (0 min) and at different intervals from 30 min to 8 h after dosing. Plasma was isolated immediately from the whole blood by centrifugation at 5000 rpm for 10 min at 4° C., after which 10 μL of plasma were mixed with 90 μL of 50% sucrose, vortexed for 30 s, and stored at 4° C. until all time points had been collected (samples were stored from 0-8 h). Samples were then mixed with 20 μL of 6× native loading buffer (125 mM tris, pH 6.8, 0.02% bromophenol, 20% glycerol). 6 μL of these samples were loaded onto a 4-20% polyacrylamide gel. Gels were run at constant 80 V at 4° C. for 14 h using a Laemli buffer system (25 mM tris, 192 mM glycine, pH 8.3). Gels were then blotted onto nitrocellulose membranes (0.45 μm, Bio-Rad) at constant 30 V at 4° C. for 2 h using the Laemli buffer (no methanol). The membrane was blocked with 5% non-fat dry milk (NFDM) in TBST (20 mM tris, 150 mM NaCl, pH 7.6, 0.1% Tween-20) for 1 h at 23° C., and then washed once for 10 min with TBST. […]
In vivo plasma HDL remodeling activities of some of the peptides were also analyzed. […] Results shown in the figure were determined by Western blotting for mouse apoA-I.

[2] = test system: HDL in human plasma; experiment: pre-beta HDL ELISA assay: remodeling HDL in human plasma in vitro; format: biochemical
Method: First, various cyclic peptides, including the majority of compounds shown in FIG. 2, were assessed for activities for remodeling HDL in human plasma in vitro. Unlike western blot which was used to generate data shown in FIG. 2, here a pre-beta HDL ELISA assay was used to measure pre-beta HDL levels. Results from the assay are shown in Table 1, which lists the peptides in the order of their activities in remodeling HDL.

[3] = test system: LDLr-null mice; experiment: evaluation of atherosclerosis: whole aorta lesion area and aortic sinus lesion volume; format: in vivo, mouse; settings: oral 35 mg/kg in drinking water, 10 weeks, female LDLr-null mice; FIG. 8; 35 mg/kg
Text: (§1) In vivo efficacy study: LDL receptor-null (LDLr^−/−) mice on a C57BL/6J background were initially purchased from Jackson Laboratories (Bar Harbor, Me.) and were bred in house. The mice were weaned at 4 weeks of age and were fed ad libitum a standard chow diet (Harlan Teklad 7019) until they were 10-weeks old, when they were switched to a high-fat Western diet (WD) containing 15.8% (wt/wt) fat, 1.25% (wt/wt) cholesterol, and no cholate (Harlan Teklad 94059). At the time that the WD was started, the test cyclic peptide was added to the drinking water at a high dose of 180 μM (200 μg/mL) or a low dose of 18 μM (20 μg/mL) and the mice (female, n=8 per dosing group) were continued on WD for 10 weeks. The lyophilized peptide was easily dissolved in PBS (pH 7.4) containing 1% sucrose, resulting in a clear solution. The drinking water solution was replaced with fresh solution every day. A control group of eight mice (female, n=8) were fed WD with vehicle (PBS with 1% sucrose) drinking water. The mice consumed approximately 2.5 mL of water per day per mouse, and there was no significant difference in water or food consumption between groups.
Evaluation of atherosclerosis: Atherosclerotic lesion severity was assessed in the aortae as previously described in Mullick et al., J. Clin. Invest. 115, 3149-3156, 2005. Briefly, at euthanasia, animals were perfused with PBS, followed by 4% formaldehyde (10% UltraPure EM Grade from Polysciences diluted in PBS, pH 7.2). For en face analysis, the entire mouse aorta was dissected from the proximal ascending aorta to the bifurcation of the iliac artery by using a dissecting microscope. Adventitial fat was removed, and the aorta was opened longitudinally, pinned flat onto black dissecting wax, stained with Sudan IV, and photographed at a fixed magnification. The photographs were digitized, and total aortic areas and lesion areas were calculated by using Adobe Photoshop version CS4, Chromatica V, and NIH Scion Image software (http://rsb.info.nih.gov/nih-image/Default.html). The results were reported as a percentage of the total aortic area that contained lesions.
As a second assessment of atherosclerosis, lesions of the aortic root (heart sinus) were analyzed. Utilizing stereological principles, lesion volume was estimated across a fixed distance of the aortic sinus. […] Lesion areas found only within the valve cusp were measured. […] Lesion volume was calculated from an integration of the measured cross-sectional areas. […]
Other than their in vivo cholesterol reducing activities, several peptides were also examined for ability to inhibit development of atherosclerotic legions in vivo. […] All charts in the figure are shown as a scatter plot along with mean±SD. p values were determined by the one-way ANOVA test with a post hoc Tukey-Kramer test.

[4] = test system: LDLr-null mice; experiment: in vivo efficacy study: plasma total cholesterol in high-fat-fed LDLr-null mice; parameters: species or system mouse; settings: oral 35 mg/kg in drinking water, two weeks, female LDLr-null mice, high-fat diet; FIG. 7
Text: Encouraged by the above findings, we carried out a 2-week pilot study to determine the effect of 1 on plasma total cholesterol levels. As an animal model, we employed the LDLr-null mouse, which has a human-like lipoprotein profile and is a leading animal model for studying hypercholesterolemia and atherogenesis. Considering that the abiotic nature of cyclic D,L-α-peptides renders them highly resistant to proteolysis, we chose to conduct this pilot in vivo efficacy study via the more convenient oral route of administration. Thus, the cyclic D,L-α-peptide was administered orally in the drinking water for two weeks (each mouse drank ˜0.5 mg peptide per day, or ˜25 mg/kg/day) to mice maintained on a high-fat diet.
as §1
Effect of cyclic peptides on plasma total cholesterol: The mice were bled after two weeks of treatment and at the time of harvest (10 weeks). The blood (200 μL) was collected after an overnight fast (14-16 h) by retro-orbital puncture into a heparinized capillary tube at two weeks, or by cardiac puncture into EDTA anti-coagulant coated tubes at the time of harvest (10 weeks). Plasma was separated from whole blood immediately by centrifugation of the blood samples at 5000 rpm for 10 min at 4° C., and was then stored at −80° C. Plasma total cholesterol (TC) was measured using an enzymatic colorimetric method kit (Amplex® red cholesterol assay kit, No. A12216, Life Technologies) according to the manufacturer's instructions.
In addition, several peptides were administered orally to mice at a 35 mg/kg dose (unless otherwise noted) in the drinking water for two weeks. The female LDLr-null mice maintained on a high-fat diet were provided with peptide-treated 1% sucrose/PBS or 1% sucrose/PBS alone as the drinking water ad libitum. Cholesterol levels were then determined. The data are shown in FIG. 7 as a scatter plot along with mean±SD. p values were determined by the one-way ANOVA test with a post hoc Tukey-Kramer test.

| Substance | in vivo plasma HDL remodeling, level of lipid-poor pre-beta particles [1] | Pre-beta HDL generated (normalized level) ([2]; pre-beta HDL ELISA) | development of atherosclerotic lesions: whole aorta lesion areas and aortic sinus lesion volumes (in words) [3] | activity in generating pre-beta HDL (in words) [2] | plasma cholesterol levels (in words) [4] |
| --- | --- | --- | --- | --- | --- |
| 53 (cyclo([dW]L[dW]K[dH]S[dH]K); SMILES CC(C)C[C@@H]1NC(=O)[C@@H](Cc2c[nH]c3ccccc23)NC(=O)[C@H](CCCCN)NC(=O)[C@@H](Cc2c[nH]cn2)NC(=O)[C@H](CO)NC(=O)[C@@H](Cc2c[nH]cn2)NC(=O)[C@H](CCCCN)NC(=O)[C@@H](Cc2c[nH]c3ccccc23)NC1=O) [compound 53] | able to remodel plasma HDL to increase the level of lipid-poor pre-beta particles | 0.79 | – | – | – |
| 82 (cyclo(WIW[dW]K[dH]K[dH]); SMILES CC[C@H](C)[C@@H]1NC(=O)[C@H](Cc2c[nH]c3ccccc23)NC(=O)[C@@H](Cc2c[nH]cn2)NC(=O)[C@H](CCCCN)NC(=O)[C@@H](Cc2c[nH]cn2)NC(=O)[C@H](CCCCN)NC(=O)[C@@H](Cc2c[nH]c3ccccc23)NC(=O)[C@H](Cc2c[nH]c3ccccc23)NC1=O) [compound 82] | able to remodel plasma HDL to increase the level of lipid-poor pre-beta particles | – | – | – | – |
| c[(Me)wLwR(Me)eQeR] (cyclo([dNMeW]L[dW]R[dNMeE]Q[dE]R)) [SEQ ID NO:46] | – | – | remains very effective as the parent compound; also recorded: similarly effective as the parent compound in preventing the development of atherosclerotic lesions | negatively affect | negatively affect |
